Measured values reported in patent publication US20210169080A1, “HETEROCYCLE DERIVATIVES AS PESTICIDES” (Bayer Aktiengesellschaft, priority 2018, published 2021).

Columns and labels:
Phaedon cochleariae = Phaedon cochleariae spray test; type: in vivo; conditions: 100 g/ha, sprayed Chinese cabbage leaf discs, after 7 days
Protocol: (§1) [table] To produce a suitable active compound formulation, 1 part by weight of active compound is dissolved with the specified parts by weight of solvent and made up to the desired concentration with water containing an emulsifier concentration of 1000 ppm. To produce further test concentrations, the formulation is diluted with emulsifier-containing water. Discs of Chinese cabbage leaves (Brassica pekinensis) are sprayed with an active compound formulation of the desired concentration and, after drying, populated with larvae of the mustard beetle (Phaedon cochleariae). After 7 days, the efficacy in % is determined. 100% means that all the beetle larvae have been killed; 0% means that no beetle larvae have been killed.

[1] = log P by reversed-phase HPLC (EEC Directive 79/831 Annex V.A8), acidic method; type: physicochemical; conditions: HPLC on reversed-phase C18, acidic range, formic acid in water/acetonitrile; for chromatographic logP: reversed-phase C18 HPLC column
Protocol: The log P values were determined according to EEC Directive 79/831 Annex V.A8 by HPLC (high-performance liquid chromatography) on a reversed-phase column (C18) using the following methods: ^[a] […] Calibration was carried out using a homologous series of straight-chain alkan-2-ones (having 3 to 16 carbon atoms) with known log P values. The values between successive alkanones are determined by linear regression.

Spodoptera frugiperda = Spodoptera frugiperda spray test; type: in vivo; conditions: 100 g/ha, sprayed maize leaf discs, after 7 days
Protocol: as §1, with “water. Leaf discs” for “water. Discs”, “of maize (Zea mays)” for “of Chinese cabbage leaves (Brassica pekinensis)”, “with caterpillars” for “with larvae”, “the fall armyworm (Spodoptera frugiperda).” for “the mustard beetle (Phaedon cochleariae).”, “the caterpillars” for “the beetle larvae”, “no caterpillar has” for “no beetle larvae have”

Diabrotica balteata = Diabrotica balteata spray test; type: in vivo; conditions: 160 μg/cavity, germinated wheat corns infested with beetle larvae, after 7 days
Protocol: [table] To produce a suitable active compound formulation, 1 part by weight of active compound is dissolved with the specified parts by weight of solvent and made up to the desired concentration with water containing an emulsifier concentration of 1000 ppm. To produce further test concentrations, the formulation is diluted with emulsifier-containing water. Pre-swollen wheat corns (Triticum aestivum) are incubated for one day in a multiwell plate filled with agar and a little water (5 seed corns per cavity). The germinated wheat corns are sprayed with an active compound formulation of the desired concentration. Subsequently, each cavity is infested with 10-20 Diabrotica balteata beetle larvae. After 7 days, the efficacy in % is determined. 100% means that all wheat plants have grown as in the untreated uninfested control; 0% means that no wheat plant has grown.

Myzus persicae [2] = experiment: Myzus persicae spray test; type: in vivo; conditions: 100 g/ha, sprayed Chinese cabbage leaf discs, after 5 days
Protocol: as §1, with “pekinensis) infested by all stages of the green peach aphid (Myzus persicae)” for “pekinensis)”, “concentration.” for “concentration and, after drying, populated with larvae of the mustard beetle (Phaedon cochleariae).”, “5” for “7”, “aphids” for “beetle larvae”

Ctenocephalides felis [3] = experiment: Ctenocephalides felis oral test; type: in vivo; conditions: 100 ppm in citrated cattle blood, adult cat fleas, after 2 days
Protocol: Solvent: dimethyl sulfoxide To produce a suitable active compound formulation, 10 mg of active compound are mixed with 0.5 ml of dimethyl sulfoxide. Dilution with citrated cattle blood gives the desired concentration. About 20 unfed adult cat fleas (Ctenocephalides felis) are placed into a chamber which is closed at the top and bottom with gauze. A metal cylinder whose bottom end is closed with parafilm is placed onto the chamber. The cylinder contains the blood/active compound formulation, which can be imbibed by the fleas through the parafilm membrane. After 2 days, the kill in % is determined. 100% means that all of the fleas have been killed; 0% means that none of the fleas have been killed.

Myzus persicae [4] = experiment: Myzus persicae oral test; type: in vivo; conditions: 4 ppm, oral uptake through parafilm, after 5 days
Protocol: [table] To produce a suitable active compound formulation, 1 part by weight of active compound is dissolved with the stated parts by weight of solvent and made up to the desired concentration with water. 50 μl of the active compound formulation are transferred into microtitre plates and made up to a final volume of 200 μl with 150 μl of IPL41 insect medium (33%+15% sugar). Subsequently, the plates are sealed with parafilm, which a mixed population of green peach aphids (Myzus persicae) within a second microtitre plate is able to puncture and imbibe the solution. After 5 days, the efficacy in % is determined. 100% means that all the aphids have been killed; 0% means that no aphids have been killed.

Rhipicephalus sanguineus = Rhipicephalus sanguineus in vitro contact test with adult brown dog ticks; type: in vivo; conditions: application rate 5 μg/cm^2 (=500 g ai/ha), after 48 h
Protocol: For the coating of the test tubes, 9 mg of active compound are first dissolved in 1 ml of acetone p.a. and then diluted to the desired concentration with acetone p.a. 250 μl of the solution are distributed homogeneously on the inner walls and the base of a 25 ml glass tube by turning and rocking on an orbital shaker (rocking rotation at 30 rpm for 2 h). With 900 ppm of active compound solution and internal surface area 44.7 cm^2, given homogeneous distribution, an area-based dose of 5 μg/cm^2 is achieved. After the solvent has evaporated off, the tubes are populated with 5-10 adult dog ticks (Rhipicephalus sanguineus), sealed with a perforated plastic lid and incubated in a horizontal position in the dark at room temperature and ambient humidity. After 48 h, efficacy is determined. To this end, the ticks are knocked to the base of the tube and incubated on a hotplate at 45-50° C. for not more than 5 min. Ticks which remain motionless on the base or move in such an uncoordinated manner that they are unable to deliberately avoid the heat by climbing upwards are considered to be dead or moribund. […] An efficacy of 100% means that all the ticks were dead or moribund. 0% efficacy means that none of the ticks were harmed.

Boophilus microplus = Boophilus microplus injection test; type: in vivo; conditions: 20 μg/animal injected into abdomen of engorged adult female cattle ticks, assessed after 7 days
Protocol: Solvent: dimethyl sulfoxide To produce a suitable active compound formulation, 10 mg of active compound are mixed with 0.5 ml of solvent and the concentrate is diluted to the desired concentration with solvent. 1 μl of the active compound solution is injected into the abdomen of 5 engorged adult female cattle ticks (Boophilus microplus). The animals are transferred into dishes and kept in a climate-controlled room. The activity is assessed after 7 days by laying of fertile eggs. Eggs which are not visibly fertile are stored in a climate-controlled cabinet until the larvae hatch after about 42 days. An efficacy of 100% means that none of the ticks has laid any fertile eggs; 0% means that all the eggs are fertile.

Ctenocephalides felis [5] = experiment: Ctenocephalides felis in vitro contact test with adult cat fleas; type: in vivo; conditions: application rate 5 μg/cm^2 (=500 g/ha), after 48 h
Protocol: For the coating of the test tubes, 9 mg of active compound are first dissolved in 1 ml of acetone p.a. and then diluted to the desired concentration with acetone p.a. 250 μl of the solution are distributed homogeneously on the inner walls and the base of a 25 ml glass tube by turning and rocking on an orbital shaker (rocking rotation at 30 rpm for 2 h). With 900 ppm of active compound solution and internal surface area 44.7 cm^2, given homogeneous distribution, an area-based dose of 5 μg/cm^2 is achieved. After the solvent has evaporated off, the tubes are populated with 5-10 adult cat fleas (Ctenocephalides felis), sealed with a perforated plastic lid and incubated in a horizontal position at room temperature and ambient humidity. After 48 h, efficacy is determined. To this end, the tubes are stood upright and the fleas are knocked to the base of the tube. Fleas which remain motionless at the base or move in an uncoordinated manner are considered to be dead or moribund. […] 100% efficacy means that all the fleas were dead or moribund. 0% efficacy means that no fleas were harmed.

SMILES	efficacy (beetle larvae killed) (Phaedon cochleariae)	chromatographic logP [1]	efficacy (caterpillars killed) (Spodoptera frugiperda)	efficacy (wheat plants grown as in uninfested control) (Diabrotica balteata)	efficacy (aphids killed) (Myzus persicae [2])	efficacy (kill in %) (Ctenocephalides felis [3])	efficacy (aphids killed) (Myzus persicae [4])	efficacy (ticks dead or moribund) (Rhipicephalus sanguineus)	efficacy (no laying of fertile eggs) (Boophilus microplus)	efficacy (fleas dead or moribund) (Ctenocephalides felis [5])	log P (acidic) [1]
CCS(=O)(=O)c1c(-c2nc3cc(C(F)(F)F)ccc3o2)nc2cc(C3(C#N)CC3)ccn12 [Example 1-4]	100%	3.22	100%								
CCS(=O)(=O)c1c(-c2nc3cc(OC(F)(F)F)ccc3o2)nc2cc(C3(C#N)CC3)ccn12 [Example 1-5, 1-[3-Ethylsulfonyl-2-[5-(trifluoromethoxy)-1,3-benzoxazol-2-yl]imidazo[1,2-a]pyridin-7-yl]cyclopropanecarbonitrile]		3.29	83%	100%							
CCS(=O)(=O)c1c(-c2nc3cc([S+]([O-])C(F)(F)F)ccc3o2)nc2cc(C3(C#N)CC3)ccn12 (stereo not shown) [Example 1-2, 1-[3-(ethylsulfonyl)-2-{5-[(trifluoromethyl)sulfinyl]-1,3-benzoxazol-2-yl}imidazo[1,2-a]pyridin-7-yl]cyclo-propanecarbonitrile]	100%	2.67	100%		100%	100%	100%				
CCS(=O)(=O)c1c(-c2nc3cc(S(=O)(=O)C(F)(F)F)ccc3o2)nc2cc(C3(C#N)CC3)ccn12 [Example 1-1, 1-[3-(Ethylsulfonyl)-2-{5-[(trifluoromethyl)sulfonyl]-1,3-benzoxazol-2-yl}imidazo-[1,2-a]pyridin-7-yl]cyclopropanecarbonitrile]	100%	3.18	100%			95%	100%				
CCS(=O)(=O)c1c(-c2nc3cc(SC(F)(F)F)ccc3o2)nc2cc(C3(C#N)CC3)ccn12 [Example 1-3, 1-[3-(Ethylsulfonyl)-2-{5-[(trifluoromethyl)sulfanyl]-1,3-benzoxazol-2-yl}imidazo-[1,2-a]pyridin-7-yl]cyclopropanecarbonitrile]	100%	3.63	100%			100%		80%	90%	100%	
CCS(=O)(=O)c1c(-c2nc3cc(C(F)(F)C(F)(F)F)ccc3o2)nc2cc(C3(C#N)CC3)ccn12 [Example 1-6, 1-[3-Ethylsulfonyl-2-[5-(l, 1,2,2,2-pentafluoroethyl)-1,3-benzoxazol-2-yl]imidazo [1,2-a]pyridin-7-yl]cyclopropanecarbonitrile]											3.68
